How the values were obtained:
[1] = tested on: polymorphonuclear leucocytes (PMNL); experiment: Test 1: Release of proteolytic activity from human PMNL; type: cell-based; conditions: Homo sapiens, PMNL, read-out: Test 1 residual activity (release of proteolytic activity), percent of control
Procedure, shortened: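 Human peripheral-blood PMNL (5·10^6 cells/ml in PBS with 7.5 mM glucose) preincubated 20 min at 37° C. with compound, then primed with cytochalasin B (5 μg/ml) and TNF (30 ng/ml), and stimulated with fMLP (10 nmol/l) for 60 min. Released protease in supernatant read with methoxysuccinyl-nitroanilide substrate at 405 nm over 0-60 min, pH 7.5.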

[2] = tested on: leukotriene B4 synthesis in white blood cells; experiment: Test 3: LTB4 formation by white blood cells; type: cell-based; conditions: Homo sapiens, read-out: Test 3 residual activity (LTB4 formation), percent of control
Procedure, shortened: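 Human blood leukocytes (dextran sedimentation, 10^7 cells/ml) preincubated 15 min at 37 °C with compound plus CaCl2/MgCl2, then stimulated with A23187/glutathione for 5 min at 37 °C. LTB4 in supernatant quantified by reversed-phase HPLC with UV at 280 nm; residual activity given as percent of control at stated μM concentration.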

[3] = tested on: cyclooxygenase-dependent thrombocyte aggregation; experiment: Test 5: Cyclooxygenase-dependent thrombocyte aggregation; type: cell-based, human; conditions: Homo sapiens, arachidonic acid as inducer, read-out: Test 5 residual activity (cyclooxygenase-dependent thrombocyte aggregation), percent of control
Procedure, shortened: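 Citrated human platelet-rich plasma was preincubated 10 min at 37 °C with test substance diluted 1:30 in 50 mM Tris-HCl pH 8.0, 90 mM NaCl. Aggregation was triggered with arachidonic acid (5 mg/ml, 20 μl) under 800 rpm stirring in an aggregometer. Values are tested concentration (μM) and residual activity as % of control.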

[4] = tested on: tumor cell line 20-10-5S (hybridoma cell line); experiment: Test 8: Inhibition of tumor cell proliferation; type: cell-based; conditions: 48 h + 16 h tritiated thymidine incorporation; 20-10-5S cells

`CC(C)(C)c1cc(C2=NOC(c3ccccn3)C2)cc(C(C)(C)C)c1O` (centres unmarked) [Example 9] was tested. Which activity at 100 µM [1] did it give?
The activity at 100 µM was 64%.

What about the activity at 1 µM [2] of the same molecule?
The activity at 1 µM was 59%.

What about the activity at 10 µM [2] of the same molecule?
Its activity at 10 µM is 0%.

And the activity at 100 µM [3]?
The activity at 100 µM was 92%.

How did the activity at 1 µM [1] turn out when `CC(O)c1cc(-c2cc(C(C)(C)C)c(O)c(C(C)(C)C)c2)no1` (centres unmarked) [Example 28] was run?
The activity at 1 µM was 97%.

And the activity at 10 µM [1]?
Its activity at 10 µM is 59%.

And the activity at 1 µM [2]?
The activity at 1 µM was 14%.

What about the activity at 10 µM [2] of the same molecule?
The activity at 10 µM was 0%.

What about the IC50 [4] of the same molecule?
Its IC50 is less than 5 µM.

What about the activity at 10 µM ([3]; 10 μM) of the same molecule?
The activity at 10 µM was 93%.

For `CCOC(=O)CNC(=O)OCCCc1cc(-c2cc(C(C)(C)C)c(O)c(C(C)(C)C)c2)no1` [Example 41, N-(3-(4-Hydroxy-3,5-di-tert-butylphenyl)isoxazol-5-ylpropoxycarbonyl)glycine ethyl ester], which activity at 100 µM [1] is on record?
Its activity at 100 µM is 78%.

And the activity at 10 µM [2]?
Its activity at 10 µM is 13%.

What about the IC50 [4] of the same molecule?
Its IC50 is less than 5 µM.

And the activity at 100 µM [3]?
The activity at 100 µM was 95%.

With `CC(C)(C)c1cc(-c2cc(CNS(=O)(=O)C(F)(F)F)on2)cc(C(C)(C)C)c1O` [Example 49, N-(3-(4-Hydroxy-3,5-di-tert-butylphenyl)isoxazol-5-ylmethyl)trifluoromethanesulfonamide] as the molecule, how does the activity at 1 µM [1] read?
The activity at 1 µM was 88%.

And the activity at 10 µM [1]?
The activity at 10 µM was 23%.

And the activity at 100 µM [1]?
The activity at 100 µM was 19%.

And the activity at 1 µM [2]?
The activity at 1 µM was 90%.

What about the activity at 10 µM [2] of the same molecule?
Its activity at 10 µM is 0%.

What about the IC50 [4] of the same molecule?
Its IC50 is 5 to 10 µM.

`CC(C)(C)c1cc(C2CC(CCC(=O)O)=NO2)cc(C(C)(C)C)c1O` (centres unmarked) [Example 63, 5-(4-Hydroxy-3,5-di-tert-butylphenyl)-2-isoxazolin-3-ylpropionic acid] was tested. Which activity at 10 µM [1] did it give?
Its activity at 10 µM is 88%.

What about the activity at 100 µM [1] of the same molecule?
The activity at 100 µM was 66%.

What about the activity at 10 µM [2] of the same molecule?
The activity at 10 µM was 91%.
